Data as given in article PMC5155291 (Scientific Reports, 2016).
Like-named read-outs stand apart in the source and are kept apart here.

Experiments:
WT hDAT [1] = molecular target: T1, WT hDAT (Homo sapiens, UniProt Q01959); experiment: Kinetic analysis of [3H]DA uptake in the presence or absence of PMA or BIM; type: cell-based; conditions: 30 min preincubation
T1 construct: Synthetic cDNA encoding hDAT subcloned into pcDNA3.1+; expressed in transfected cells; host or cells: PC12 cells (ATCC CRL-1721), transient transfection with pcDNA3.1+ plasmid, Lipofectamine 2000
Protocol: (§1) To determine whether H547A-induced increase in Vmax was mediated by a phosphorylation-dependent mechanism, kinetic analysis of [^3H]DA uptake was measured in the presence or absence of PKC activator PMA (Tocris, Bristol, UK) or PKC inhibitor BIM (Sigma-Aldrich, St. Louis, MO). The concentrations were chosen based on previous reports. In brief, intact PC12 cells transfected with WT or H547A-hDAT were preincubated with or without PMA or BIM (1 μM, final concentration) for 30 min at 37 °C or room temperature and then incubated with six concentrations of mixed [^3H]DA for 8 min as described above. Nonspecific uptake of each concentration of [^3H]DA (in the presence of 10 μM nomifensine) was subtracted from total uptake to calculate specific DAT-mediated uptake.

H547A-hDAT [2] = molecular target: T2, H547A-hDAT (Homo sapiens, UniProt Q01959, H547A); experiment: as above; type: cell-based; conditions: 1 μM PMA, 30 min preincubation, 37 °C
T2 construct: Synthetic cDNA encoding hDAT subcloned into pcDNA3.1+; expressed in transfected cells; host or cells: PC12 cells (ATCC CRL-1721), transient transfection with pcDNA3.1+ plasmid
Protocol: as §1

H547D-hDAT = molecular target: T3, H547D-hDAT (Homo sapiens, UniProt Q01959, H547D); experiment: Inhibition of [3H]DA uptake in intact transfected PC12 cells; type: cell-based
T3 construct: Synthetic cDNA encoding hDAT subcloned into pcDNA3.1+; expressed in transfected cells; host or cells: PC12 cells (ATCC CRL-1721), transient transfection with pcDNA3.1+ plasmid
Protocol: (§2) Cells were lysed in 500 μl of 1% SDS for an hour and radioactivity was measured using a liquid scintillation counter (model Tri-Carb 2900TR; PerkinElmer Life and Analytical Sciences, Waltham, MA). Vmax and Km were determined using Prism 5.0 (GraphPad Software Inc., San Diego, CA).
(§3) Results are presented as mean ± SEM, and n represents the number of independent experiments for each experiment group. Kinetic parameters (Vmax, Km, Bmax, and Kd) were determined from saturation curves by nonlinear regression analysis using a one-site model with variable slope. […] For experiments involving comparisons between unpaired samples, unpaired Student’s t test was used to assess any difference in the kinetic parameters (Vmax, Km, Bmax, Kd or IC50) between WT and mutant; log-transformed values of IC50, Km or Kd were used for the statistical comparisons. Significant differences between samples were analyzed with separate ANOVAs followed by post-hoc tests, as indicated in the results Section of each experiment. All statistical analyses were performed using IBM SPSS Statistics version 20, and differences were considered significant at p < 0.05.

WT hDAT [3] = molecular target: T1, WT hDAT; experiment: as above; type: cell-based
Protocol: as §2, §3

H547A-hDAT [4] = molecular target: T2, H547A-hDAT; type: cell-based
Protocol: as §2, §3

WT hDAT [5] = molecular target: T1, WT hDAT; experiment: Competitive inhibition / modulation of [3H]WIN 35,428 binding in intact transfected PC12 cells
H547A-hDAT [6] = molecular target: T2, H547A-hDAT; experiment: as above; conditions: Zn2+ 100 μM

T2 sequence (Q01959 whole entry H547A): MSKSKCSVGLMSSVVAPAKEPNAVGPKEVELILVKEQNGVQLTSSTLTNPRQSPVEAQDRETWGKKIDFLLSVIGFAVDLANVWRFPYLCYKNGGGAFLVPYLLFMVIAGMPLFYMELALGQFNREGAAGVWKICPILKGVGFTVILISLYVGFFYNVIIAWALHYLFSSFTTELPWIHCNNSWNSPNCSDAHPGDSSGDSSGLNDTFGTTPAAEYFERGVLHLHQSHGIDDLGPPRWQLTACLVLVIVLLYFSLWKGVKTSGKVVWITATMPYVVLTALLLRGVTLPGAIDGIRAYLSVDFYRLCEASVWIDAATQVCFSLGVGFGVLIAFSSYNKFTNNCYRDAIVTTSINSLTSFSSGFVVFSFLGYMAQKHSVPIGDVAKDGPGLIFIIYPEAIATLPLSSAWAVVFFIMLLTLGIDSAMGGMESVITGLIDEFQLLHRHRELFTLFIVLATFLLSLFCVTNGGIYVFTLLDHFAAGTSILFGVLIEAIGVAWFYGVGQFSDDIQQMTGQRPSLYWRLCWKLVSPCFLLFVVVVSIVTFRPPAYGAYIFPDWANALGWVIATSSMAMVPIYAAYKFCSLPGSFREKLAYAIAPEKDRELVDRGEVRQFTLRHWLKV
T1 sequence (Q01959 whole entry): as the sequence (Q01959 whole entry H547A) above, with A547H counted along it
T3 sequence (Q01959 whole entry H547D): as the sequence (Q01959 whole entry H547A) above, with A547D counted along it

CN(C)CCCn1cc(C2=C(c3c[nH]c4ccccc34)C(=O)NC2=O)c2ccccc21 [BIM, bisindolylmaleimide-I]
increase in the Vmax of [3H]DA uptake relative to control (WT hDAT [1]; 1 μM BIM): 98%

CCCCCCCCCCCCCC(=O)O[C@@H]1[C@@H](C)[C@@]2(O)[C@@H](C=C(CO)C[C@]3(O)C(=O)C(C)=C[C@@H]23)[C@@H]2C(C)(C)[C@]12OC(C)=O [PMA, phorbol 12-myristate 13-acetate]
decrease in the Vmax of [3H]DA uptake compared to control (H547A-hDAT [2]): 60% | decrease in the Vmax of [3H]DA uptake compared to control (WT hDAT [1]; 1 μM PMA, 37 °C): 40%

[Cl-].[Cl-].[Zn+2] [Zn^2+, ZnCl2]
decrease in [3H]DA uptake compared to control (H547D-hDAT; Zn2+ 10 μM): 53% | decrease in [3H]DA uptake compared to control (H547D-hDAT; Zn2+ 100 μM): 60% | decrease in [3H]DA uptake compared to control (WT hDAT [3]; Zn2+ 10 μM): 25% | decrease in [3H]DA uptake compared to control (WT hDAT [3]; Zn2+ 100 μM): 37% | decrease in [3H]DA uptake compared to control (H547A-hDAT [4]; Zn2+ 10 μM, not significant): 10% | decrease in [3H]DA uptake compared to control (H547A-hDAT [4]; Zn2+ 100 μM): 38% | increase in [3H]WIN 35,428 binding (WT hDAT [5]; Zn2+ 10 μM): 80% | increase in [3H]WIN 35,428 binding (WT hDAT [5]; Zn2+ 100 μM): 82% | increase in [3H]WIN 35,428 binding (H547A-hDAT [6]): 27%
